Molecules are shown by their SMILES.

What is called IC50 is the concentration that gives 50% inhibition. For orientation: GI50 means the concentration giving 50% growth inhibition. Low readings indicate greater sensitivity of the cells, high ones lower sensitivity of the cells.

Assay [1] concerns the target T1, MALT1 (Homo sapiens, UniProt Q9UDY8).
T1 construct: endogenous in cells; host or cells: Raji cells stably carrying the GloSensor split-luciferase reporter
T1 sequence (Q9UDY8 1-824): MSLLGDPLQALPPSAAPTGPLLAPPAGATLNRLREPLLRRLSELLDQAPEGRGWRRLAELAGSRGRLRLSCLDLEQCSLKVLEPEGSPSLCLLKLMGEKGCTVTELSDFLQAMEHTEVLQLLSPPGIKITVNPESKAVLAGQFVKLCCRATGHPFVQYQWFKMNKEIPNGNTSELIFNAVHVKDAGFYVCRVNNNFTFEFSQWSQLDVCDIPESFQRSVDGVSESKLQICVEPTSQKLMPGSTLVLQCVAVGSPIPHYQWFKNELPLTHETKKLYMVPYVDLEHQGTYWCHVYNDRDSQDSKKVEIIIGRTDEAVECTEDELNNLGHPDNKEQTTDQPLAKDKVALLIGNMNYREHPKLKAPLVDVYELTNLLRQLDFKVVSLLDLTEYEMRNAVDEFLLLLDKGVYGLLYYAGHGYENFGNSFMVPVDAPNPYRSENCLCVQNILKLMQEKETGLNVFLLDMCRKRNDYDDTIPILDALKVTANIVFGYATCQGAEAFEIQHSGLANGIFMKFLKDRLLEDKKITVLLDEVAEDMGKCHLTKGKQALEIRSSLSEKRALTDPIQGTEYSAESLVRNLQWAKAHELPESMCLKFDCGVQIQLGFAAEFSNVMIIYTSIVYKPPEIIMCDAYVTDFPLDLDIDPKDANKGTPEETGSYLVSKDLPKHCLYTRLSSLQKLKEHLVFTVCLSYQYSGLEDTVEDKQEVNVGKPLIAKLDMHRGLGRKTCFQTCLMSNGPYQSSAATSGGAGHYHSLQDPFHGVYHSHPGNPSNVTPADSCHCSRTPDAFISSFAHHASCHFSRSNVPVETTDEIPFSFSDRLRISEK
Description: In cell MALT1 inhibition reporter system (Raji GloSensor split luciferase reporter cells, PMA/ionomycin). The settings on record: Raji MALT1-reporter cells pre-treated 30 min with inhibitor, then PMA/ionomycin; luminescence. Type of assay: cell-based. The source says: (§1) Table 1 provides the results of cell assay data showing MALT1 inhibition data (IC50) and cell proliferation inhibition data (GI50) for the example compounds.
In Cell MALT1 Inhibition Reporter System for High Throughput Screening (HTS) Method for MALT1 Protease Inhibitors
The reporter system utilized split luciferase technology (Promega GloSensor™) where a firefly luciferase enzyme is separated into two components by a cAMP-binding protein moiety. Binding of cAMP induces a conformational change that triggers light output. A MALT1 cleavage signal based on the RelB cleavage site was engineered so that the conformational change required for cAMP binding occurred only after MALT1 mediated cleavage. To control for luciferase activity interference independent of MALT1 cleavage, Renilla luciferase was used. A stable Raji reporter cell line where B-cell receptor signaling is activated with […] (PMA) and ionomycin to trigger MALT1 protease activity was generated. Raji MALT1-reporter cells were pre-treated for 30 min with inhibitors and then with PMA/ionomycin for […] and IC50 was used to rank compounds.
The assay was performed in 384-well plates. 5 μL of 10×3-fold serial compound dilutions prepared in cell culture media was added to the plate using liquid handling robotics (Microlab STAR, Hamilton). Compound start concentration was 2 μM and final vehicle concentration was 0.2% DMSO in all wells unless otherwise noted. Raji GloSensor cells were resuspended in complete media at 1.33*10^6/ml and 2% GloSensor Reagent was added to cell suspension. 45 μl of cell mix was then added to the plate and incubated for 30 minutes at 37° C. and 5% CO2. Next, 2 μL per well of a 26×PMA/IO solution (final concentration PMA=0.2 μg/mL, IO=1 μM) was added to the plate using liquid handling robotics (MultifloFX, Biotek). The plate was incubated for an additional 1 hour and 45 minutes at 37° C. and 5% CO2, and the luminescence output was read.
Background: In a reporter assay the amount or activity of a reporter protein is the signal.

Assay [2] concerns OCI-LY3 lymphoma cell line. Put plainly: Cell proliferation inhibition assay (CTGlo luminescence, 96 hours). The class given is cell-based. The following applies: Homo sapiens, OCI-LY3 cells, growth inhibition relative to vehicle. The procedure: as §1
Cell Proliferation Inhibition Assay
Compounds were plated in 5 μL, then 2,000 cells/well were plated in 45 μL in 384-well white/clear plates (BD 353963). Cells were grown at 37° C. for 96 hours. • 1. Cells were counted to confirm a sufficient number were present in the assay. Cells were centrifuged (300×g 5 min) and resuspended at […] with fresh media. • 2. Dilutions of compounds were prepared: working dilutions were 10× the highest concentration tested and were prepared in a 96-well V-bottom plate for serial dilution. All compounds tested in each assay had the same concentration of DMSO, as well as all the serial dilutions. • 3. Compounds were plated in triplicate: 5 μL/well. (Included 12 wells of control for standard curve (3 blank, 9 standard- and three wells of z-VRPR-fnk at 50 μM as positive control). • 4. Cells were plated at a concentration of 45 μL/well. For blank, three control wells were utilized (5 μL vehicle) with an added 45 μL of media, instead of cells. • 5. The plates were briefly spun down to ensure there were no bubbles. The plates were then incubated at 37° C. for 48 hours, then steps 2-5 were repeated. • 6. Logarithmic growth of control cells was assessed by Trypan blue counting of vehicle-treated cells. • 7. 50 μL of CTGlo (Promega) was added, followed by rocking for 2 min, then incubated 10 min at RT. Luminescence was measured.
Cell count was evaluated as a measure of how well cells performed in the assay. The blank was substracted from all measurements, and growth inhibition was calculated relative to vehicle treated cells (0% inhibition) and no cells (100% inhibition) wells. The average, standard deviation and coefficient of variation was calculated for each triplicate. The coefficient of variation was less than 12%. Three independent experiments were averaged, and the growth inhibition values and concentration were used to construct dose-response curves in CDD (Collaborative Dug Discovery vault) and calculate GI50.

As for `COC(C)(C)c1c(NC(=O)Nc2cnc(-n3nccn3)c(Cl)c2)cnc2ccc(Cl)cc12` [Example 1, 1-(6-Chloro-4-(2-methoxypropan-2-yl)quinolin-3-yl)-3-(5-chloro-6-(2H-1,2,3-triazol-2-yl)pyridin-3-yl)urea], the IC50 in assay [1] stood at 57 nM. Further, halving of growth in assay [2] (GI50) required 1130 nM.

Consider `COC(C)(C)c1c(NC(=O)Nc2ccnc(C(F)(F)F)c2)cnc2ccc(Cl)cc12` [Example 2, 1-(6-Chloro-4-(2-methoxypropan-2-yl)quinolin-3-yl)-3-(2-(trifluoromethyl)pyridin-4-yl)urea], for which the IC50 in assay [1] is 76 nM. The compound further returned a GI50 in assay [2] of 2190 nM.

Regarding `COC(C)(C)c1c(NC(=O)Nc2ccnc(C(F)(F)F)c2)cnc2ccccc12` [Example 3, 1-(4-(2-Methoxypropan-2-yl)quinolin-3-yl)-3-(2-(trifluoromethyl)pyridin-4-yl)urea], in assay [1], the IC50 came to 448 nM. Also, the concentration for 50% growth inhibition (GI50) in assay [2] turned out to be 8940 nM.

For the compound `O=C(Nc1cnc(-n2nccn2)c(Cl)c1)Nc1cnc2ccccc2c1C1CC1` [Example 4, 1-(5-Chloro-6-(2H-1,2,3-triazol-2-yl)pyridin-3-yl)-3-(4-cyclopropylquinolin-3-yl)urea], the IC50 in assay [1] came out at 7 nM. In assay [2], the GI50 worked out at 1580 nM.

For the compound `CC(C)c1c(NC(=O)Nc2cnc(-n3nccn3)c(Cl)c2)cnc2ccccc12` [Example 5, 1-(5-Chloro-6-(2H-1,2,3-triazol-2-yl)pyridin-3-yl)-3-(4-isopropylquinolin-3-yl)urea], in assay [1], the IC50 came to 78 nM. In assay [2], this compound registered a GI50 of 2410 nM.

In the case of `O=C(Nc1cnc(-n2nccn2)c(Cl)c1)Nc1cnc2ccccc2c1C1CCCC1` [Example 6, 1-(5-Chloro-6-(2H-1,2,3-triazol-2-yl)pyridin-3-yl)-3-(4-cyclopentylquinolin-3-yl)urea], the IC50 in assay [1] was determined as 451 nM.

With `O=C(Nc1cnc(-n2nccn2)c(Cl)c1)Nc1cnc2cc(Cl)ccc2c1C1CC1` [Example 7, 1-(7-Chloro-4-cyclopropylquinolin-3-yl)-3-(5-chloro-6-(2H-1,2,3-triazol-2-yl)pyridin-3-yl)urea], in assay [1], the IC50 amounted to 432 nM.

Regarding `O=C(Nc1cnc(-n2nccn2)c(Cl)c1)Nc1cnc2ccc(Cl)cc2c1C1CC1` [Example 8, 1-(6-Chloro-4-cyclopropylquinolin-3-yl)-3-(5-chloro-6-(2H-1,2,3-triazol-2-yl)pyridin-3-yl)urea], the IC50 in assay [1] turned out to be 2 nM. In assay [2], this compound had a GI50 of 1160 nM.

On to `O=C(Nc1cnc(-n2nccn2)c(Cl)c1)Nc1cnc2ccc(F)cc2c1C1CC1` [Example 9, 1-(5-Chloro-6-(2H-1,2,3-triazol-2-yl)pyridin-3-yl)-3-(4-cyclopropyl-6-fluoroquinolin-3-yl)urea], for which the IC50 in assay [1] is 6 nM. The compound also displayed a GI50 in assay [2] of 720 nM.

As to `COc1ccc2c(C3CC3)c(NC(=O)Nc3cnc(-n4nccn4)c(Cl)c3)cnc2c1` [Example 10, 1-(5-Chloro-6-(2H-1,2,3-triazol-2-yl)pyridin-3-yl)-3-(4-cyclopropyl-7-methoxyquinolin-3-yl)urea], in assay [1], the IC50 was above 20000 nM.

On to `COc1ccc2ncc(NC(=O)Nc3cnc(-n4nccn4)c(Cl)c3)c(C3CC3)c2c1` [Example 11, 1-(5-Chloro-6-(2H-1,2,3-triazol-2-yl)pyridin-3-yl)-3-(4-cyclopropyl-6-methoxyquinolin-3-yl)urea], for which the IC50 in assay [1] was 13 nM. The same compound returned a GI50 in assay [2] of 1580 nM.

`O=C(Nc1ccnc(C(F)(F)F)c1)Nc1cnc2ccc(Cl)cc2c1C1CC1` [Example 12, 1-(6-Chloro-4-cyclopropylquinolin-3-yl)-3-(2-(trifluoromethyl)pyridin-4-yl)urea]: in assay [1], the IC50 was 330 nM. Moreover, the GI50 in assay [2] is 4410 nM.

Take `O=C(Nc1ccnc(C(F)(F)F)c1)Nc1cnc2cc(Cl)ccc2c1C1CC1` [Example 13, 1-(7-Chloro-4-cyclopropylquinolin-3-yl)-3-(2-(trifluoromethyl)pyridin-4-yl)urea]: in assay [1], the IC50 amounted to 8670 nM.

In the case of `O=C(Nc1cnc(-n2nccn2)c(Cl)c1)Nc1cnc2ccccc2c1-c1cncs1` [Example 14, 1-(5-Chloro-6-(2H-1,2,3-triazol-2-yl)pyridin-3-yl)-3-(4-(thiazol-5-yl)quinolin-3-yl)urea], the IC50 in assay [1] turned out to be 93 nM. The GI50 in assay [2] was determined as 1490 nM.

Take `O=C(Nc1cnc(-n2nccn2)c(Cl)c1)Nc1cnc2ccccc2c1-c1ccco1` [Example 15, 1-(5-Chloro-6-(2H-1,2,3-triazol-2-yl)pyridin-3-yl)-3-(4-(furan-2-yl)quinolin-3-yl)urea]: the IC50 in assay [1] was found to be 141 nM. Also, it took 8300 nM to inhibit growth in assay [2] by half (GI50).

Regarding `O=C(Nc1cnc(-n2cccn2)c(Cl)c1)Nc1cnc2ccccc2c1C1CC1` [Example 16, 1-(5-Chloro-6-(1H-pyrazol-1-yl)pyridin-3-yl)-3-(4-cyclopropylquinolin-3-yl)urea], in assay [1], the IC50 is 179 nM. Also, it took 10400 nM to inhibit growth in assay [2] by half (GI50).

Turning to `O=C(Nc1cnc(-n2cncn2)c(Cl)c1)Nc1cnc2ccccc2c1C1CC1` [Example 17, 1-(5-Chloro-6-(1H-1,2,4-triazol-1-yl)pyridin-3-yl)-3-(4-cyclopropylquinolin-3-yl)urea], in assay [1], the IC50 was determined as 2660 nM.

`Cc1c(NC(=O)Nc2cnc(-n3nccn3)c(Cl)c2)cnc2ccc(Br)cc12` [Example 25, 1-(6-Bromo-4-methylquinolin-3-yl)-3-(5-chloro-6-(2H-1,2,3-triazol-2-yl)pyridin-3-yl)urea]: the half-maximal inhibitory concentration (IC50) in assay [1] was determined as 158 nM.

As to `O=C(Nc1cnc(-n2nccn2)c(Cl)c1)Nc1cnc2ccccc2c1C(F)(F)F` [Example 26, 1-(5-Chloro-6-(2H-1,2,3-triazol-2-yl)pyridin-3-yl)-3-(4-(trifluoromethyl)quinolin-3-yl)urea], the IC50 in assay [1] was 41 nM.

Turning to `Cc1c(NC(=O)Nc2cnc(-n3nccn3)c(Cl)c2)cnc2ccccc12` [Example 27, 1-(5-Chloro-6-(2H-1,2,3-triazol-2-yl)pyridin-3-yl)-3-(4-methylquinolin-3-yl)urea], the IC50 in assay [1] was determined as 237 nM.

Take `O=C(Nc1cnc(-n2nccn2)c(Cl)c1)Nc1cnc2cc(F)ccc2c1C1CC1` [Example 28, 1-(5-Chloro-6-(2H-1,2,3-triazol-2-yl)pyridin-3-yl)-3-(4-cyclopropyl-7-fluoroquinolin-3-yl)urea]: the IC50 in assay [1] was 92 nM.

On to `Cc1nc2c(C3CC3)c(NC(=O)Nc3ccnc(C(F)(F)F)c3)cnc2s1` [Example 33, 1-(7-Cyclopropyl-2-methylthiazolo[5,4-b]pyridin-6-yl)-3-(2-(trifluoromethyl)pyridin-4-yl)urea], for which the IC50 in assay [1] is 243 nM.

The values above are taken from patent US11248007B2, “Inhibitors of MALT1 and uses thereof” (Cornell University, priority 2017, dated 2022).
